Measurements taken from paper PMC5059758, “Structural characterization of antibiotic self-immunity tRNA synthetase in plant tumour biocontrol agent” (Nature Communications, 2016).

Legend:
agrobacterial IleRS = conditions: cited from earlier work
[1] = molecular target: T1, LeuRS H. pylori (LeuRSHp) (Helicobacter pylori, UniProt P56457); experiment: Aminoacylation assay, LeuRSHp; assay type: biochemical; conditions: aminoacylation of agrobacterium tRNALeu, 37 °C, 4 nM enzyme
T1 construct: made in house
Experimental: Aminoacylation activities of AgnB2, LeuRSAt and their mutants were measured in 50 mM HEPES buffer (pH 7.4) containing 20 mM KCl, 25 mM MgCl2, 25 mM β-ME, 4 mM ATP, 500 μM [3,4,5-^3H] L-leucine (20 μCi/mmole), 5 μg/ml inorganic pyrophosphatase, 1 μM BSA, 10 μM of active in vitro transcribed tRNA^Leu and enzymes in the range of 2–8 nM. Reactions were pre-incubated with or without substrate and/or inhibitor and then carried out at 28 °C (37 °C-LeuRSHp). Aliquots of the reaction (5–10 μl) were quenched on 3 mM filter pads (Whatman, GE Healthcare) presoaked with 5% trichloroacetic acid (TCA). The pads were washed thrice with 5% TCA and 90% ethanol at 4 °C and then dried. The amount of Leu-tRNA^Leu was then quantified using scintillation counting. Each reaction was performed in triplicate and analyzed using Kaleidagraph (for Km and kcat determinations) or GraphPad Prism software (for IC50 determination).

[2] = tested on: LeuRSAt Triad (P45T/N105A/M633Q); experiment: Aminoacylation assay, LeuRSAt Triad mutant; assay type: biochemical, A. tumefaciens; conditions: TM84 concentrations as high as 500 nM, 4 nM enzyme, 0.63 mM ATP
[3] = tested on: AgnB2 Triple (T42P/A102N/Q573M); experiment: Isothermal titration calorimetry, AgnB2 Triple mutant; assay type: binding, Agrobacterium radiobacter K84; conditions: ITC
Experimental: (§1) Typically, about 4–8 μM active protein solution and a 10-fold higher ligand concentration were prepared in buffer containing 50 mM HEPES (pH 7.4), 20 mM KCl 10 mM MgCl2 and 1 mM β-ME. The titrations were carried out in triplicate at 28 °C. The data was then analyzed using Origin software (version 7) and fitted to a one-site or a two-site binding model to obtain the binding affinity (Kd), stoichiometry (N) and enthalpy (ΔH) for each complex.

wt AgnB2 (LeuRS) [4] = molecular target: T2, wt AgnB2 (LeuRS) (Agrobacterium radiobacter, UniProt B9JQP8); experiment: Isothermal titration calorimetry, wt AgnB2; assay type: binding, Agrobacterium radiobacter K84; conditions: ITC; for Kd: 28 °C
Experimental: as §1

wt AgnB2 (LeuRS) [5] = molecular target: T2, wt AgnB2 (LeuRS); experiment: Aminoacylation assay, wt AgnB2; conditions: for Ki: 2 nM enzyme

CC(C)[C@@H](O)[C@H](O)C(=O)NP(=O)(O)OC[C@@H]1C[C@H](O)[C@H](n2cnc3c(N)ncnc32)O1 [TM84]
inhibition of agrobacterial IleRS (agrobacterial IleRS): does not inhibit
IC50 [1]: 0.034 ± 0.00114 µM
effect on aminoacylation activity [2]: almost no effect
effect of mutations on TM84 binding, enzyme alone ([3]; AgnB2 Triple alone vs wt AgnB2): no significant effect
increase in binding of TM84 to the AgnB2·tRNALeu complex ([3]; AgnB2 Triple with tRNALeu vs wt AgnB2): 3.5 fold
reduction in AgnB2-binding affinity compared with LeuRSAt (wt AgnB2 (LeuRS) [4]; binary binding, AgnB2 vs LeuRSAt (ref 23)): 6.9 fold
decrease in affinity, AgnB2·tRNA·TM84 compared with LeuRSAt·tRNA·TM84 complex (wt AgnB2 (LeuRS) [4]; ternary complex): ~330 fold
Kd (wt AgnB2 (LeuRS) [4]; ligand binding to AgnB2 alone, pH 7.4): 1.05 µM
Kd (wt AgnB2 (LeuRS) [4]; TM84 binding to AgnB2 with pre-bound tRNA, AgnB2 with pre-bound tRNA): 0.332 µM
IC50 (wt AgnB2 (LeuRS) [5]): 61.3 µM
change in aminoacylation activity (wt AgnB2 (LeuRS) [5]; 4 nM enzyme, 0.63 mM ATP, 28 °C, pH 7.4): No change
mode of inhibition with regards to ATP and leucine (wt AgnB2 (LeuRS) [5]; aminoacylation, Lineweaver-Burk): weak competitive inhibitor
Ki (wt AgnB2 (LeuRS) [5]; apparent TM84 Ki, varying leucine, aminoacylation, fixed ATP 1 mM, 28 °C, pH 7.4): 1.38 ± 0.28 µM
Ki (wt AgnB2 (LeuRS) [5]; apparent TM84 inhibition constant (Ki), varying ATP, aminoacylation, fixed leucine, AgnB2·tRNALeu pre-incubated, 28 °C, pH 7.4): 4.72 ± 0.75 µM
